Patent publication US12286632B2, “Rationally-designed synthetic peptide shuttle agents for delivering polypeptide cargos from an extracellular space to the cytosol and/or nucleus of a target eukaryotic cell, uses thereof, methods and kits relating to same” (Feldan Bio Inc., priority 2016, dated 2025)

Assays:
rat parietal cortex = assay: In vivo GFP-NLS delivery by stereotaxic injection, fluorescence microscopy of brain slices; details: shuttle 20 μM + GFP-NLS 20 μM, 5 μL injected over 10 min; sacrificed 2 h after surgery
Description: In separate sterile 1.5-mL tubes, shuttle agent His-CM18-PTD4 was diluted in sterile distilled water at room temperature. […] One negative control was included for the experiment, which corresponds to the injection of the GFP-NLS alone.
Bilateral injections were performed in the parietal cortex of three rats. In the left parietal cortex (ipsilateral), a mix composed of the shuttle agent (20 μM) and the GFP-NLS (20 μM) was injected, and in the right parietal cortex (contralateral), only the GFP-NLS (20 μM) was injected as a negative control. For surgical procedures, […] were anesthetized with isoflurane. Then the animal was placed in a stereotaxic frame, and the skull surface was exposed. Two holes were drilled at the appropriate sites to allow bilateral infusion of the shuttle/cargo mix or GFP-NLS alone (20 μM) with 5-μL Hamilton syringe. Antero-posterior (AP), lateral (L), and dorso-ventral (DV) coordinates were taken relative to the bregma: (a) AP+0.48 mm, L±3 mm, V-5 mm; (b) AP-b 2 mm, L±1.3 mm, V-1.5 mm; (c) AP-2.6 mm, L 1.5 mm, V-1.5 mm. The infused volume of the shuttle/cargo mix or cargo alone was 5 μL per injection site and the injection was performed for 10 minutes. […]
Dorso-ventral rat brain slices were collected and analysed by fluorescence microscopy and results are shown in at 4× (FIG. 48A), 10× (FIG. 48C) and 20× (FIG. 48D) magnifications. […]

Jurkat cells = assay: GFP-NLS transduction in different adherent and suspension cells (flow cytometry, Pos cells % and viability %); assay type: cell-based, Human; details: Protocol C, 5 μM shuttle, 5 μM GFP-NLS, 15 seconds
Description: (§1) The ability of the shuttle agent His-CM18-PTD4 to deliver GFP-NLS to the nuclei of different adherent and suspension cells using Protocols B (adherent cells) or C (suspension cells) as described in Example 9.1 was examined. The cell lines tested included: HeLa, Balb3T3, HEK 293T, CHO, NIH3T3, Myoblasts, Jurkat, THP-1, CA46, and HT2 cells, which were cultured as described in Example 1. GFP-NLS (5 μM; see Example 5.1) was co-incubated with 35 μM of His-CM18-PTD4 and exposed to adherent cells for 10 seconds (Protocol B), or was co-incubated with 5 μM of His-CM18-PTD4 and exposed to suspension cells for 15 seconds (Protocol C). […] “Pos cells (%)” is the mean percentages of all cells that emanate a GFP signal.

HEK 293T cells = assay: as above; assay type: cell-based, Human; details: Protocol B, 35 μM shuttle, 5 μM GFP-NLS, 10 seconds
Description: (§2) The media in wells was removed, cells were washed once with PBS previously warmed at 37° C., and the shuttle agent/cargo mixture was then added to cover all cells for the desired length of time. The shuttle agent/cargo mixture in wells was removed, the cells were washed once with PBS, and fresh complete medium was added. Before analysis, the cells were washed once with PBS and fresh complete medium was added.
as §1

Myoblasts = assay: as above; assay type: cell-based, Human; details: Protocol B, 35 μM shuttle, 5 μM GFP-NLS, 10 seconds
Description: as §2, §1

PPIB gene = assay: T7E1 DNA cleavage assay after CRISPR/Cas9-NLS delivery, HeLa cells; assay type: cell-based, Human; details: shuttle 10 μM; Cas9-NLS 25 nM; HeLa cells 16 h, medium without serum
Text: The T7 endonuclease I (T7E1) can be used to detect on-target CRISPR/Cas genome editing events in cultured cells. As an overview, genomic DNA from target cells is amplified by PCR. The PCR products are then denatured and reannealed to allow heteroduplex formation between wild-type DNA and CRISPR/Cas-mutated DNA. T7E1, which recognizes and cleaves mismatched DNA, is used to digest the heteroduplexes. The resulting cleaved and full-length PCR products are visualized by gel electrophoresis.
The T7E1 assay was performed with the Edit-R™ Synthetic crRNA Positive Controls (Dharmacon #U-007000-05) and the T7 Endonuclease I (NEB, Cat #M0302S). After the delivery of the CRISPR/Cas complex, cells were lysed in 100 μL of Phusion™ High-Fidelity DNA polymerase (NEB #M0530S) laboratory with additives. The cells were incubated for 15-30 minutes at 56° C., followed by deactivation for 5 minutes at 96° C. The plate was briefly centrifuged to collect the liquid at bottom of the wells. 50-μL PCR samples were set up for each sample to be analyzed. The PCR samples were heated to 95° C. for 10 minutes and then slowly (>15 minutes) cooled to room temperature. PCR product (-5 μL) was then separated on an agarose gel (2%) to confirm amplification. 15 μL of each reaction was incubated with T7E1 nuclease for 25 minutes at 37° C. […]

HeLa cells = assay: Plasmid DNA (pEGFP-C1) transfection by peptides (% cells with GFP signal, cell viability); details: DNA transfection in HeLa cells using peptides; pEGFP-C1 plasmid
CHO cells = assay: GFP-NLS transduction in different adherent and suspension cells (flow cytometry, Pos cells % and viability %); assay type: cell-based, Chinese hamster; details: Protocol B, 35 μM shuttle, 5 μM GFP-NLS, 10 seconds
Description: as §2, §1

In the case of `CC[C@H](C)[C@H](NC(=O)[C@H](CCCCN)NC(=O)[C@H](CCCCN)NC(=O)[C@H](Cc1ccccc1)NC(=O)[C@H](CC(C)C)NC(=O)[C@H](CCCCN)NC(=O)[C@H](Cc1c[nH]c2ccccc12)NC(=O)[C@H](CCCCN)NC(=O)[C@H](Cc1c[nH]cn1)NC(=O)[C@H](Cc1c[nH]cn1)NC(=O)[C@H](Cc1c[nH]cn1)NC(=O)[C@H](Cc1c[nH]cn1)NC(=O)[C@H](Cc1c[nH]cn1)NC(=O)[C@@H](N)Cc1c[nH]cn1)C(=O)NCC(=O)N[C@@H](C)C(=O)N[C@H](C(=O)N[C@@H](CC(C)C)C(=O)N[C@@H](CCCCN)C(=O)N[C@H](C(=O)N[C@@H](CC(C)C)C(=O)N[C@H](C(=O)N[C@H](C(=O)NCC(=O)N[C@@H](Cc1ccc(O)cc1)C(=O)N[C@@H](C)C(=O)N[C@@H](CCCNC(=N)N)C(=O)N[C@@H](C)C(=O)N[C@@H](C)C(=O)N[C@@H](C)C(=O)N[C@@H](CCCNC(=N)N)C(=O)N[C@@H](CCC(N)=O)C(=O)N[C@@H](C)C(=O)N[C@@H](CCCNC(=N)N)C(=O)N[C@@H](C)C(=O)O)[C@@H](C)O)[C@@H](C)O)C(C)C)C(C)C` [His-CM18-PTD4], the “in vivo delivery of GFP-NLS to cell nuclei” value (rat parietal cortex) is reported as “delivery of the GFP-NLS in the nucleus of cells from the deeper layers of the parietal cortex (injection site) to the corpus callus and the dorsal level of the striatum (putamen)”, the “Cell viability (%) (±St. Dev.; n = 3)” value (Jurkat cells) is reported as 73.6 ± 0.7% and the “Mean % cells with GFP signal (±St. Dev.; n = 3)” value (“Mean % cells with GFP signal” below) (Jurkat cells) is reported as 30.7 ± 2.2%. The “Cell viability (%) (±St. Dev.; n = 3)” value (HEK 293T cells) was 95.3 ± 1.2%, the “Mean % cells with GFP signal” value (HEK 293T cells) was 55.3 ± 0.2% and the “Cell viability (%) (±St. Dev.; n = 3)” value (Myoblasts) was 23.5 ± 1.1%. The “Mean % cells with GFP signal” value (Myoblasts) was 25.6 ± 2.6%, the “delivery of functional CRISPR/Cas9 complex, cleavage of genomic PPIB (in words)” value (PPIB gene) was “successfully deliver a functional CRISPR/Cas9 complex to the nucleus of HeLa cells” and the “Mean % cells with GFP signal” value (HeLa cells) was 0.04 ± 0.01%. For the same compound, the “Cell viability (%) (±St. Dev.; n = 3)” value (CHO cells) was 92.8 ± 0.1% and the “Mean % cells with GFP signal” value (CHO cells) was 53.7 ± 4.6%.
